Source: PMC8911579, “(−)-Naringenin 4′,7-dimethyl Ether Isolated from Nardostachys jatamansi Relieves Pain through Inhibition of Multiple Channels” (Molecules, 2022)

Columns and labels:
[1] = tested on: endocannabinoid receptors; parameters: method as in PMID 25686780; settings: radioligand binding; cited from earlier work
[2] = tested on: opioid receptors; parameters: method as in PMID 25686780; settings: radioligand binding; cited from earlier work
[3] = tested on: pain; parameters: method as in PMID 30193010; settings: in vivo; cited from earlier work
[4] = tested on: pro-inflammatory factors; parameters: method as in PMID 30193010; settings: compared to other naringenin derivatives; cited from earlier work
[5] = biological target: T1, TRPA1 channels (Homo sapiens, UniProt O75762); assay: whole-cell patch-clamp, TRPA1 stably expressed in HEK293 cells; type: cell-based
T1 construct: expressed in transfected cells

[6] = tested on: Nav channels and Kv channels in cortical neurons; parameters: method as in PMID 34747100; settings: cited from earlier work
[7] = tested on: sleep; parameters: method as in PMID 34747100; settings: extracted from peanut stem and leaf; cited from earlier work

T1 sequence (O75762 whole entry): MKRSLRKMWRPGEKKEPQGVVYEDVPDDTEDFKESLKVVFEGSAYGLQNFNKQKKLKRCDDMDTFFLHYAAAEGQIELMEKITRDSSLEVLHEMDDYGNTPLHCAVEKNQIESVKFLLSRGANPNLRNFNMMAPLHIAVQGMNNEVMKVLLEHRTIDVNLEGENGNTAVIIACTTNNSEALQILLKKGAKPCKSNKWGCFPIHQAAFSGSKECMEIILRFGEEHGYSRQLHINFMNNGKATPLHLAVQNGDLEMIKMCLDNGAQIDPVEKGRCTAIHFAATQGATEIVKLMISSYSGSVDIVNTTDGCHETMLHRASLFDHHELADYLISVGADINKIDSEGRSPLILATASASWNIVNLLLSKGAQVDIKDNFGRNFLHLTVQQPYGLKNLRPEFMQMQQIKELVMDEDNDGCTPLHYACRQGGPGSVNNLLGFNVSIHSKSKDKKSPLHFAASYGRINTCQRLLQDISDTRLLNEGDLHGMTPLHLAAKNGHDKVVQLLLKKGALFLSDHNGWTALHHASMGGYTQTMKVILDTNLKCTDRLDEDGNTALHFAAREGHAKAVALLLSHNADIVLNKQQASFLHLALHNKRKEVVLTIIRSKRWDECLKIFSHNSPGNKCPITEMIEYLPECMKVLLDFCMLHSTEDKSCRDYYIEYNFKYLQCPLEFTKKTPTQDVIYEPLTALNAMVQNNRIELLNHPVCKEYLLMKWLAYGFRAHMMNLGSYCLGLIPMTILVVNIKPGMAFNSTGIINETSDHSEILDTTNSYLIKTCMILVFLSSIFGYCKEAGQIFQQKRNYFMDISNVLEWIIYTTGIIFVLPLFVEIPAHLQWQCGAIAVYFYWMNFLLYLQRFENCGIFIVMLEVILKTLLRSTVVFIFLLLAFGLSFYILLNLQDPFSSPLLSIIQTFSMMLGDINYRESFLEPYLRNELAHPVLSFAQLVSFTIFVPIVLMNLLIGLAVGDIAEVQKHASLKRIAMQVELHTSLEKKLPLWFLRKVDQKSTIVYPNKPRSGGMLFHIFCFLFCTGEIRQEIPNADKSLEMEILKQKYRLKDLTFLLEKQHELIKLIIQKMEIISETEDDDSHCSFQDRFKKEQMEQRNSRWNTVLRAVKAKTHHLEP

SMILES: COc1ccc([C@@H]2CC(=O)c3c(O)cc(OC)cc3O2)cc1 [(+)-NRG-DM, (+)-naringenin 4′,7-dimethyl ether]
- affinity [1]: does not show affinity
- affinity [2]: does not show affinity
- analgesic activity [3]: showed analgesic activity
- production and release of pro-inflammatory factors [4]: did not influence the production and release of pro-inflammatory factors

SMILES: CC(C)c1ccc(NC(=O)Cn2cnc3c2c(=O)n(C)c(=O)n3C)cc1 [HC030031]
- effect on TRPA1 currents ([5]; 30 µM, TRPA1 channel inhibitor): inhibited

SMILES: C=CCN=C=S [AITC, allyl isothiocyanate]
- effect on TRPA1 currents ([5]; 10 µM, TRPA1 channel activator): induced

SMILES: COc1ccc([C@@H]2CC(=O)c3c(O)cc(OC)cc3O2)cc1 [NRG-DM]
- inhibitory activity on Nav channels versus Kv channels [6]: more potent than that on Kv channels
- sleep [7]: promoted sleep
